We go through four compounds from ChEMBL document CHEMBL5728754 (2021).

Bounds are passed on as bounds.

The Ki is a dissociation constant, usually derived from enzyme kinetics or from competition with a known ligand.

The assay deals with Mitogen-activated protein kinase kinase kinase kinase 1 (Homo sapiens, UniProt Q92918). Kind of assay: HPK1 Biochemical Enzyme Assay: HPK1 enzyme inhibition was measured using a microfluidic mobility shift assay (MSA). The reactions were conducted in 50 μL volumes in 96-well plates, and contained 0.5 nM human full-length recombinant HPK1, 3 μM phosphoacceptor peptide, 5FAM-[…]-COOH (CPC Scientific, Sunnyvale, Calif.), test compound (11-dose 3-fold serial dilutions, 2% DMSO final) or DMSO only, 0.002% Tween-20, 1 mM DTT and 2.5 mM MgCl2 in 50 mM MOPS (3-(N-morpholino)propanesulfonic acid), pH 7.8, buffer and were initiated by addition of 75 μM ATP, following a 20-min preincubation. The reactions were conducted for 60 min at 37° C., stopped by the addition of 50 μL of 0.015 M EDTA, pH 8, and the extent of reactions (˜15-20% conversion with no inhibitor) was determined after electrophoretic separation of the fluorescently labeled peptide substrate and phosphorylated product on an LabChip EZ Reader II (PerkinElmer, Inc., Waltham, Mass.).Inhibition of HPK1 was also measured using the fluorescence based chelation-enhanced fluorescence (CHEF) method (1), using a proprietary fluorescent peptide substrate, in which a cysteine residue is alkylated with a sulfonamido-oxine based derivative to afford an amino acid termed C-Sox (CSx). The assay was conducted similarly as described for the MSA method above, but using 3 μM Ac-[CSx][…]-amide peptide substrate (also known as AQT0178 when purchased from AssayQuant Technologies Inc., Hopkinton, Mass.) and 45 μM ATP. Initial reaction velocities were determined by following the peptide fluorescence (λex=360 nm, λem=500 nm) at 30° C. for 15 min in a Tecan M1000 plate reader (Tecan Group Ltd., Männedorf, Zürich, Switzerland). […] HPK1 protein was produced in-house and preactivated by autophosphorylation of enzyme with MgATP as described in the section “Production of recombinant autophosphorylated full-length HPK1”. Format: single protein.
Sequence of Mitogen-activated protein kinase kinase kinase kinase 1 (Q92918 whole entry): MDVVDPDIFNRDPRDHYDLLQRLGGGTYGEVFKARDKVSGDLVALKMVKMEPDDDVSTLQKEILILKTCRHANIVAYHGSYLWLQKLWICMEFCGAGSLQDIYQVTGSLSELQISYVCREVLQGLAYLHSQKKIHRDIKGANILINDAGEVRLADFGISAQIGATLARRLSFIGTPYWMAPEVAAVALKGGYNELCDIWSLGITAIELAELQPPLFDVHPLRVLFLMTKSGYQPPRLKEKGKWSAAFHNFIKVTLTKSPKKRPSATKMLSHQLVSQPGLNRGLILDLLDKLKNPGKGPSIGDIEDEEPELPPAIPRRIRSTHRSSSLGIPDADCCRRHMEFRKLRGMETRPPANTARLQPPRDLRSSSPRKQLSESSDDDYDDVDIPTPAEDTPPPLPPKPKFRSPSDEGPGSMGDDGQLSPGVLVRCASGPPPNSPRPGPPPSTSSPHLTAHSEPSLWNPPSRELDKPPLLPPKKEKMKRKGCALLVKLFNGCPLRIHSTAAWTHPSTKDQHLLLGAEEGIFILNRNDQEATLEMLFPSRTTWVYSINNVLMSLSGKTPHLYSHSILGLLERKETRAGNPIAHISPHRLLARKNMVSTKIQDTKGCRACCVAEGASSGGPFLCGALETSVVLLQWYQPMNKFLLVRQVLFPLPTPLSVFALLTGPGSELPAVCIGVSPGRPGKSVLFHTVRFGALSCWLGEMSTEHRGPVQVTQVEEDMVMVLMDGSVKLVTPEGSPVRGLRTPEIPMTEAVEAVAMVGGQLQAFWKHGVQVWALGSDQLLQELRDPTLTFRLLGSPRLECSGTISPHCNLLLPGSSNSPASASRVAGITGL
With `Cc1nnc(-c2cccc(N3Cc4c(cc(N5CCCC5(C)C)nc4CN)C3=O)n2)n1C(C)C`, the Ki turned out to be 0.1 nM.
As to `CNCc1nc(NC)cc2c1CN(c1cccc(-c3nncn3C(C)C)n1)C2=O`, the Ki is 0.72 nM.
The result for `CNCc1nc(N2CCCC2)cc2c1CN(c1cccc(-c3nncn3[C@@H](C)CC(F)(F)F)n1)C2=O` reads less than 0.07 nM; that for `CCn1c(C)nnc1-c1cccc(N2Cc3c(cc(N4CCC[C@H]4C)nc3CNC)C2=O)n1`, 0.09 nM.
